Results published in patent publication US8143263B2, “Therapeutic agents” (Astrazeneca AB, priority 2008, dated 2012).

These compounds were tested against T1, recombinant human pancreatic GLK (Homo sapiens, UniProt P35557) (assay: biochemical).
T1 sequence (P35557 1-465): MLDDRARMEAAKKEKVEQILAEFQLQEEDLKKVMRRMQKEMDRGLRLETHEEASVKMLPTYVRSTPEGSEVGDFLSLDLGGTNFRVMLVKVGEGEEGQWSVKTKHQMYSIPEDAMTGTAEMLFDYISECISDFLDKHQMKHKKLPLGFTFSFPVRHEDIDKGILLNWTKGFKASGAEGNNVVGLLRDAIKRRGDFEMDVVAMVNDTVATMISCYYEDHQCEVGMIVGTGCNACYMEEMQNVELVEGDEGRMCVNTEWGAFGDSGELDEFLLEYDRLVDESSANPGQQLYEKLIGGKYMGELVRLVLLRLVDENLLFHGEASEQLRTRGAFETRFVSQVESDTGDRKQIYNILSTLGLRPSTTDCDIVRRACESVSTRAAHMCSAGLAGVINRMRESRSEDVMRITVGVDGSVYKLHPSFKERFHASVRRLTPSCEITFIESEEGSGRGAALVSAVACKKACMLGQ
For Cc1cnc(NC(=O)[C@H](COC2CCC2)Oc2ncnc3c2cnn3-c2cnccc2C)cn1 [Example 188, (2S)-3-cyclobutoxy-N-(5-methylpyrazin-2-yl)-2-(1-(4-methylpyridin-3-yl)-1H-pyrazolo[3,4-d]pyrimidin-4-yloxy)propanamide], the EC50 was 1100 nM.
CCC(C)C(Sc1ncnc2c1cnn2-c1ccccc1Cl)C(=O)Nc1ccon1 (stereo not shown) [Example 55, 2-{[1-(2-chlorophenyl)-1H-pyrazolo[3,4-d]pyrimidin-4-yl]thio}-N-isoxazol-3-yl-3-methylpentanamide] was tested, and the EC50 was over 20000 nM.
N#Cc1ccc(NC(=O)[C@H](CN2CC(O)C2)Oc2ncnc3c2cnn3-c2ccccc2Cl)nc1 [Example 223, (2S)-2-[1-(2-chlorophenyl)pyrazolo[3,4-d]pyrimidin-4-yl]oxy-N-(5-cyano-2-pyridyl)-3-(3-hydroxyazetidin-1-yl)propanamide] was tested, and the EC50 was 310 nM.
With CCOC[C@H](Oc1ncnc2c1cnn2-c1ccccc1Cl)C(=O)Nc1cnc(C)cn1 [Example 105, (2S)-2-[1-(2-chlorophenyl)pyrazolo[4,5-e]pyrimidin-4-yl]oxy-3-ethoxy-N-(5-methylpyrazin-2-yl)propanamide] the EC50 was 510 nM.
With COCC(Oc1ncnc2c1cnn2-c1ccccc1OC)C(=O)Nc1ccc(C)cn1 (stereo not shown) [Example 4, 3-methoxy-2-{[1-(2-methoxyphenyl)-1H-pyrazolo[3,4-d]pyrimidin-4-yl]oxy}-N-(5-methylpyridin-2-yl)propanamide] the EC50 was 3400 nM.
Compound Cc1ccc(NC(=O)[C@H](COC2CCC2)Oc2ncnc3c2cnn3-c2ncccc2Cl)nc1 [Example 158, (2S)-2-(1-(3-chloropyridin-2-yl)-1H-pyrazolo[3,4-d]pyrimidin-4-yloxy)-3-cyclobutoxy-N-(5-methylpyridin-2-yl)propanamide] has an EC50 of 150 nM.
Cc1ccc(NC(=O)[C@H](CO[C@H](C)CO)Oc2ncnc3c2cnn3-c2cscc2C)nc1 [Example 227, (2S)-3-[(1R)-2-hydroxy-1-methyl-ethoxy]-N-(5-methyl-2-pyridyl)-2-[1-(4-methyl-3-thienyl)pyrazolo[3,4-d]pyrimidin-4-yl]oxy-propanamide] was tested, and the EC50 was 320 nM.
With O=C(Nc1ccc(Cl)cn1)[C@H](COCCO)Oc1ncnc2c1cnn2-c1ccccc1Cl [Example 171, (2S)-2-[1-(2-chlorophenyl)pyrazolo[4,5-e]pyrimidin-4-yl]oxy-N-(5-chloropyridin-2-yl)-3-(2-hydroxyethoxy)propanamide] the EC50 was 330 nM.
With C[C@H](CO)OC[C@H](Oc1ncnc2c1cnn2-c1ccccc1Cl)C(=O)Nc1ccc(C#N)cn1 [Example 252, (2S)-2-[1-(2-chlorophenyl)pyrazolo[3,4-d]pyrimidin-4-yl]oxy-N-(5-cyano-2-pyridyl)-3-[(1R)-2-hydroxy-1-methyl-ethoxy]propanamide] the EC50 was 450 nM.
Compound CCOC(Sc1ncnc2c1cnn2-c1ccccc1OC)C(=O)Nc1nc(C)cs1 (stereo not shown) [Example 71, 2-Ethoxy-2-{[1-(2-methoxyphenyl)-1H-pyrazolo[3,4-d]pyrimidin-4-yl]thio}-N-(4-methyl-1,3-thiazol-2-yl)acetamide] has an EC50 of 1600 nM.
For N#Cc1cccc(Cl)c1-n1ncc2c(O[C@@H](CN3CC(O)C3)C(=O)Nc3ccc(F)cn3)ncnc21 [Example 242, (2S)-2-[1-(2-chloro-6-cyano-phenyl)pyrazolo[3,4-d]pyrimidin-4-yl]oxy-N-(5-fluoro-2-pyridyl)-3-(3-hydroxyazetidin-1-yl)propanamide], the EC50 was 220 nM.
COC[C@H](Oc1ncnc2c1cnn2-c1ccccc1)C(=O)Nc1ccc(C)cn1 [Example 107, (S)-3-Methoxy-N-(5-methylpyridin-2-yl)-2-(1-phenyl-1H-pyrazolo[3,4-d]pyrimidin-4-yloxy)propanamide] showed an EC50 of 3600 nM.
Compound Cc1ccc(NC(=O)[C@H](COC(C)C)Oc2ncnc3c2cnn3-c2ncccc2Cl)nn1 [Example 127, (2S)-2-[1-(3-chloro-2-pyridyl)pyrazolo[4,5-e]pyrimidin-4-yl]oxy-3-isopropoxy-N-(6-methylpyridazin-3-yl)propanamide] has an EC50 of 6000 nM.
Work on Cc1ccc(NC(=O)[C@H](CN2CC(O)C2)Oc2ncnc3c2cnn3-c2ncccc2Cl)nc1 [Example 206, (2S)-2-(1-(3-chloropyridin-2-yl)-1H-pyrazolo[3,4-d]pyrimidin-4-yloxy)-3-(3-hydroxyazetidin-1-yl)-N-(5-methylpyridin-2-yl)propanamide] yielded an EC50 of 570 nM.
O=C(Nc1ccc(F)cn1)[C@H](CN1CC(O)C1)Oc1ncnc2c1cnn2-c1ccccc1Cl [Example 215, (2S)-2-[1-(2-chlorophenyl)pyrazolo[4,5-e]pyrimidin-4-yl]oxy-N-(5-fluoro-2-pyridyl)-3-(3-hydroxyazetidin-1-yl)propanamide] showed an EC50 of 229 nM.
Cc1cnc(NC(=O)[C@H](COC2CCC2)Oc2ncnc3c2cnn3-c2ncccc2Cl)cn1 [Example 157, (2S)-2-(1-(3-chloropyridin-2-yl)-1H-pyrazolo[3,4-d]pyrimidin-4-yloxy)-3-cyclobutoxy-N-(5-methylpyrazin-2-yl)propanamide] showed an EC50 of 140 nM.
For Cc1ccc(F)cc1-n1ncc2c(O[C@@H](COCCO)C(=O)Nc3ccc(C#N)cn3)ncnc21 [Example 182, (2S)—N-(5-cyanopyridin-2-yl)-2-(1-(5-fluoro-2-methylphenyl)-1H-pyrazolo[3,4-d]pyrimidin-4-yloxy)-3-(2-hydroxyethoxy)propanamide], the EC50 was 3000 nM.
C[C@H](CO)OC[C@H](Oc1ncnc2c1cnn2-c1c(Cl)cccc1C#N)C(=O)Nc1ccc(C#N)cn1 [Example 251, (2S)-2-[1-(2-chloro-6-cyano-phenyl)pyrazolo[3,4-d]pyrimidin-4-yl]oxy-N-(5-cyano-2-pyridyl)-3-[(1R)-2-hydroxy-1-methyl-ethoxy]propanamide] gave an EC50 of 350 nM.
Work on CCOC(Sc1ncnc2c1cnn2-c1ccccc1OC)C(=O)Nc1ccon1 (stereo not shown) [Example 72, 2-Ethoxy-N-isoxazol-3-yl-2-{[1-(2-methoxyphenyl)-1H-pyrazolo[3,4-d]pyrimidin-4-yl]thio}acetamide] yielded an EC50 of 2900 nM.
Compound CCCCCCC(Sc1ncnc2c1cnn2-c1ccccc1Cl)C(=O)Nc1nc(C)cs1 (stereo not shown) [Example 63, 2-{[1-(2-chlorophenyl)-1H-pyrazolo[3,4-d]pyrimidin-4-yl]thio}-N-(4-methyl-1,3-thiazol-2-yl)octanamide] has an EC50 of over 4500 nM.
CCCCC(Oc1ncnc2c1cnn2C)C(=O)Nc1ccc(C)cn1 (stereo not shown) [Example 39, 2-[(1-methyl-1H-pyrazolo[3,4-d]pyrimidin-4-yl)oxy]-N-(5-methylpyridin-2-yl)hexanamide] was tested, and the EC50 was 11000 nM.
Compound COCCC(Oc1ncnc2c1cnn2-c1ccccc1C)C(=O)Nc1ccc(C)cn1 (stereo not shown) [Example 16, 4-methoxy-2-{[1-(2-methylphenyl)-1H-pyrazolo[3,4-d]pyrimidin-4-yl]oxy}-N-(5-methylpyridin-2-yl)butanamide] has an EC50 of 290 nM.
In the case of O=C(Nc1ccc(F)cn1)[C@H](COCCO)Oc1ncnc2c1cnn2-c1ccccc1Cl [Example 248, (2S)-2-[1-(2-chlorophenyl)pyrazolo[3,4-d]pyrimidin-4-yl]oxy-N-(5-fluoro-2-pyridyl)-3-(2-hydroxyethoxy)propanamide], the EC50 is reported as 640 nM.
COCC[C@H](Oc1ncnc2c1cnn2-c1ccccc1Cl)C(=O)Nc1ccc(C)cn1 [Example 21, (S)-2-{[1-(2-chlorophenyl)-1H-pyrazolo[3,4-d]pyrimidin-4-yl]oxy}-4-methoxy-N-(5-methylpyridin-2-yl)butanamide] was tested, and the EC50 was 32 nM.
In the case of CC(C)OCC(Oc1ncnc2c1cnn2-c1ccccc1Cl)C(=O)Nc1ccc(C#N)cn1 (stereo not shown) [Example 113, 2-[1-(2-chlorophenyl)pyrazolo[4,5-e]pyrimidin-4-yl]oxy-N-(5-cyano-2-pyridyl)-3-isopropoxy-propanamide], the EC50 is reported as 300 nM.
Work on Cc1cccnc1-n1ncc2c(O[C@@H](COC(C)C)C(=O)Nc3ccc(C#N)cn3)ncnc21 [Example 127a, (2S)—N-(5-cyanopyridin-2-yl)-3-isopropoxy-2-(1-(3-methylpyridin-2-yl)-1H-pyrazolo[3,4-d]pyrimidin-4-yloxy)propanamide] yielded an EC50 of 1100 nM.
In the case of COCCC(Oc1ncnc2c1cnn2-c1ccccn1)C(=O)Nc1ccc(C)cn1 (stereo not shown) [Example 34, 4-Methoxy-N-(5-methylpyridin-2-yl)-2-[(1-pyridin-2-yl-1H-pyrazolo[3,4-d]pyrimidin-4-yl)oxy]butanamide], the EC50 is reported as 1900 nM.
Cc1cccnc1-n1ncc2c(O[C@@H](COC(C)C)C(=O)Nc3ccc(Cl)cn3)ncnc21 [Example 127b, (2S)—N-(5-chloropyridin-2-yl)-3-isopropoxy-2-(1-(3-methylpyridin-2-yl)-1H-pyrazolo[3,4-d]pyrimidin-4-yloxy)propanamide] gave an EC50 of 840 nM.
For COC[C@H](Oc1ncnc2c1cnn2-c1ccc(F)cc1Cl)C(=O)Nc1cnc(C)cn1 [Example 95, (2S)-2-(1-(2-chloro-4-fluorophenyl)-1H-pyrazolo[3,4-d]pyrimidin-4-yloxy)-3-methoxy-N-(5-methylpyrazin-2-yl)propanamide], the EC50 was 39000 nM.
Compound O=C(Nc1ccc(Cl)cn1)[C@H](CCO)Oc1ncnc2c1cnn2-c1ncccc1Cl [Example 143b, (2S)-N-(5-chloro-2-pyridyl)-2-[1-(3-chloro-2-pyridyl)pyrazolo[4,5-e]pyrimidin-4-yl]oxy-4-hydroxy-butanamide] has an EC50 of 260 nM.
Cc1ccc(C)c(-n2ncc3c(O[C@@H](COCCO)C(=O)Nc4ccc(Cl)cn4)ncnc32)c1 [Example 179, (2S)—N-(5-chloropyridin-2-yl)-2-(1-(2,5-dimethylphenyl)-1H-pyrazolo[3,4-d]pyrimidin-4-yloxy)-3-(2-hydroxyethoxy)propanamide] gave an EC50 of 620 nM.
